From patent US20110251379A1, “COMPOUNDS USEFUL FOR TREATING NEURODEGENERATIVE DISORDERS” (Satori Pharmaceuticals, Inc., priority 2010, published 2011)
pIC50: −log10 of the molar value.

test system: amyloid-beta (1-42) peptide; experiment: ELISA assay of amyloid-beta (1-42) in conditioned media of 2B7 cells; type: cell-based; settings: 5 h, Aβ-42, 2B7 cells, 5 hours; read-out: IC50 range
Description: Compounds of the present invention, and extracts comprising said compounds, may be assayed as inhibitors of amyloid-beta (1-42) peptide in vitro or in vivo. Such assay methods are described in detail in U.S. Pat. No. 6,649,196, the entirety of which is hereby incorporated herein by reference.
In certain embodiments, provided compounds of the present invention, and extracts comprising said compounds, were assayed as inhibitors of amyloid-beta (1-42) peptide in vitro using an ELISA assay.
Capture Plate Prep: • 6E10 was diluted to 5.0 ug/mL in 100 mM NaHCO3 pH 8.2 (10 ug aliquot per 2 mL buffer); • 100 uL capture antibody solution was added to wells of 96 well plate; • Incubated overnight at 4° C. sealed; • Aspirated off capture antibody; and • Blocked with 250 uL of Blocking Buffer for 2-4 hours at rt sealed.
Conditioned Media: • Cultured 2B7 cells in 96 well plate with 250 uL of media per well until confluent; • Prepared serial dilution of compounds in DMSO at 100× the final desired concentration; • Washed wells with 2B7 cells lx with 250 uL of media; • Diluted DMSO stocks 1:100 into media and mix; and • Added 250 μL of media containing compounds (1% DMSO) to wells with 2B7 cells for 5 hours at 37° C.
Elisa Sample Prep: • Diluted conditioned media 1:2 into blocking buffer; • NOTE: If assaying for A-Beta 1-40 or total A-Beta, then diluted above sample 1:10 with a 50/50 mixture of non-conditioned media containing 1% DMSO and blocking buffer.
Standard Curve Sample Prep: • Diluted appropriate A-Beta peptide stock (stored in 1% NH4OH) to 200 μg/mL in blocking buffer; • Prepared a 1:2 serial dilution from the 200 μg/mL sample (150 μL into 150 μL blocking buffer); and • Added equal volume of standard curve samples to non-conditioned media with 1% DMSO.
Overnight Sample Incubation: • Aspirated blocking buffer from blocked plate; • Added 100 μL of samples to wells of plate (samples will be 50% media with 1% DMSO and 50% blocking buffer; and • Incubated overnight at 4° C. sealed.
Addition of Detection Antibody: • Aspirated off samples, wash 2× with 250 μL blocking buffer; and • Added 100 μL detection antibody labeled with HRP at 0.25 ug/mL in blocking buffer for 4 hours at room temperature sealed.
Final Wash and Readout: • Aspirated wells, wash 5× with 250 μL of PBS-T (2 minutes each wash at 30 RPM); • Added 100 μL TMB for 20 minutes; • Added 100 μL of 1M H3PO4; and • Read at 450 nm.
Coating Buffer (100 mM NaHCO3 pH 8.2)
PBS-T (PBS with 0.05% Tween-20)
Blocking Buffer (1% BSA in PBS-T)

SMILES	pIC50
CC(=O)O[C@@H]([C@H]1C[C@@H](C)C2=C(O1)[C@H](O)[C@@]1(C)[C@@H]3CC[C@H]4C(C)(C)[C@@H](O[C@@H]5OC[C@@H](O)[C@H](O)[C@H]5O)CC[C@@]45C[C@@]35CC[C@]21C)C(C)(C)O	≥ 6.00
C[C@@H]1C[C@H]([C@H](O)C(C)(C)O)OC2=C1[C@@]1(C)CC[C@@]34C[C@@]35CC[C@H](O[C@@H]3OC[C@@H](O)[C@H](O)[C@H]3O)C(C)(C)[C@@H]5CC[C@H]4[C@]1(C)[C@H]2O	5.00 to 6.00
CC(=O)O[C@@H]([C@H]1C[C@@H](C)C2=C(O1)[C@H](O)[C@@]1(C)[C@@H]3CC[C@H]4C(C)(C)[C@@H](O)CC[C@@]45C[C@@]35CC[C@]21C)C(C)(C)O	> 5.00
CC(=O)O[C@@H]([C@H]1C[C@@H](C)C2C(O1)C(=O)[C@@]1(C)[C@@H]3CC[C@H]4C(C)(C)[C@@H](O)CC[C@@]45C[C@@]35CC[C@]21C)C(C)(C)O (stereo partly drawn)	5.00 to 6.00
C[C@@H]1C[C@H]([C@H](O)C(C)(C)O)OC2C(=O)[C@@]3(C)[C@@H]4CC[C@H]5C(C)(C)[C@@H](O[C@@H]6OC[C@@H](O)[C@H](O)[C@H]6O)CC[C@@]56C[C@@]46CC[C@]3(C)C21 (stereo partly drawn)	< 5.00
C[C@@H]1C[C@H]([C@@H]2OCOC2(C)C)OC2C1[C@@]1(C)CC[C@@]34C[C@@]35CC[C@H](O[C@@H]3OC[C@@H](O)[C@H](O)[C@H]3O)C(C)(C)[C@@H]5CC[C@H]4[C@]1(C)[C@H]2O (stereo partly drawn)	5.00 to 6.00
C[C@@H]1C[C@H]([C@@H]2OC(=O)OC2(C)C)OC2=C1[C@@]1(C)CC[C@@]34C[C@@]35CC[C@H](O[C@@H]3OC[C@@H](O)[C@H](O)[C@H]3O)C(C)(C)[C@@H]5CC[C@H]4[C@]1(C)[C@H]2O	5.00 to 6.00
C[C@@H]1C[C@H]([C@@H]2OC(=O)OC2(C)C)OC2C(O)[C@@]3(C)[C@@H]4CC[C@H]5C(C)(C)[C@@H](O[C@@H]6OC[C@@H](O)[C@H](O)[C@H]6O)CC[C@@]56C[C@@]46CC[C@]3(C)C21 (stereo partly drawn)	5.00 to 6.00
CC(=O)OC(C)(C)[C@@H](O)[C@H]1C[C@@H](C)C2=C(O1)[C@H](O)[C@@]1(C)[C@@H]3CC[C@H]4C(C)(C)[C@@H](OC5OC[C@@H](O)[C@H](O)[C@H]5O)CC[C@@]45C[C@@]35CC[C@]21C (stereo partly drawn)	5.00 to 6.00
CCC(=O)OC(C)(C)[C@H]1OC23O[C@@H]1C[C@@H](C)[C@@H]2[C@@]1(C)CC[C@@]24C[C@@]25CC[C@H](O[C@@H]2OC[C@@H](O)[C@H](O)[C@H]2O)C(C)(C)[C@@H]5CC[C@H]4[C@]1(C)[C@H]3O	5.00 to 6.00
CO[C@@H]([C@H]1C[C@@H](C)C2C(O1)[C@H](O)[C@@]1(C)[C@@H]3CC[C@H]4C(C)(C)[C@@H](O[C@@H]5OC[C@@H](O)[C@H](O)[C@H]5O)CC[C@@]45C[C@@]35CC[C@]21C)C(C)(C)O (stereo partly drawn)	5.00 to 6.00
CCC(=O)O[C@@H]([C@H]1C[C@@H](C)C2C(O1)C(O)[C@@]1(C)[C@@H]3CC[C@H]4C(C)(C)[C@@H](O[C@@H]5OC[C@@H](O)[C@H](O)[C@H]5O)CC[C@@]45C[C@@]35CC[C@]21C)C(C)(C)O (stereo partly drawn)	≥ 6.00
CC(=O)O[C@@H]([C@H]1C[C@@H](C)C2C(O1)C(N)[C@@]1(C)[C@@H]3CC[C@H]4C(C)(C)[C@@H](O[C@@H]5OC[C@@H](O)[C@H](O)[C@H]5O)CC[C@@]45C[C@@]35CC[C@]21C)C(C)(C)O (stereo partly drawn)	5.00 to 6.00
CC(=O)OC(C)(C)[C@@H](O)[C@H]1C[C@@H](C)C2C(O1)[C@H](O)[C@@]1(C)[C@@H]3CC[C@H]4C(C)(C)[C@@H](O[C@@H]5OC[C@@H](O)[C@H](O)[C@H]5O)CC[C@@]45C[C@@]35CC[C@]21C (stereo partly drawn)	5.00 to 6.00
COCO[C@@H]([C@H]1C[C@@H](C)C2=C(O1)[C@H](O)[C@@]1(C)[C@@H]3CC[C@H]4C(C)(C)[C@@H](O[C@@H]5OC[C@@H](O)[C@H](O)[C@H]5O)CC[C@@]45C[C@@]35CC[C@]21C)C(C)(C)O	5.00 to 6.00
C[C@@H]1C[C@H]([C@H](O)C(C)(C)OC(=O)O)OC2C1[C@@]1(C)CC[C@@]34C[C@@]35CC[C@H](O[C@@H]3OC[C@@H](O)[C@H](O)[C@H]3O)C(C)(C)[C@@H]5CC[C@H]4[C@]1(C)[C@H]2O (stereo partly drawn)	5.00 to 6.00

SMILES	pIC50
C[C@@H]1C[C@H](C(=O)C(C)(C)O)OC2C1[C@@]1(C)CC[C@@]34C[C@@]35CC[C@H](O[C@@H]3OC[C@@H](O)[C@H](O)[C@H]3O)C(C)(C)[C@@H]5CC[C@H]4[C@]1(C)[C@H]2O (stereo partly drawn)	< 5.00
C[C@@H]1C[C@H]([C@H](OC(N)=O)C(C)(C)O)OC2C1[C@@]1(C)CC[C@@]34C[C@@]35CC[C@H](O[C@@H]3OC[C@@H](O)[C@H](O)[C@H]3O)C(C)(C)[C@@H]5CC[C@H]4[C@]1(C)[C@H]2O (stereo partly drawn)	5.00 to 6.00
COCO[C@H]1[C@H](O)COC(O[C@H]2CC[C@]34C[C@]35CC[C@]3(C)C6C(O[C@@H]([C@@H]7OC(=O)OC7(C)C)C[C@H]6C)[C@H](O)[C@@]3(C)[C@@H]5CC[C@H]4C2(C)C)[C@@H]1O (stereo partly drawn)	5.00 to 6.00
CC(=O)O[C@H]1CC[C@]23C[C@]24CC[C@]2(C)C5[C@H](C)C[C@H]([C@H](OC(C)=O)C(C)(C)O)O[C@@H]5[C@H](O)[C@@]2(C)[C@@H]4CC[C@H]3C1(C)C (stereo partly drawn)	≥ 6.00
CC(=O)O[C@@H]([C@H]1C[C@@H](C)C2C(O1)[C@H](O)[C@@]1(C)[C@@H]3CC[C@H]4C(C)(C)[C@@H](OC(CO)OCCO)CC[C@@]45C[C@@]35CC[C@]21C)C(C)(C)O (stereo partly drawn)	≥ 6.00
CC(=O)O[C@@H]([C@H]1C[C@@H](C)C2C(O1)[C@H](O)[C@@]1(C)[C@@H]3CC[C@H]4C(C)(C)[C@@H](OC(=O)CCC(=O)O)CC[C@@]45C[C@@]35CC[C@]21C)C(C)(C)O (stereo partly drawn)	5.00 to 6.00
CC(=O)O[C@@H]([C@H]1C[C@@H](C)C2=C(O1)[C@H](O)[C@@]1(C)[C@@H]3CC[C@H]4C(C)(C)[C@@H](O[C@H]5CN(O)CCO5)CC[C@@]45C[C@@]35CC[C@]21C)C(C)(C)O	≥ 6.00
CC(=O)O[C@@H]([C@H]1C[C@@H](C)C2C(O1)[C@H](O)[C@@]1(C)[C@@H]3CC[C@H]4C(C)(C)[C@@H](O[C@H]5CN(O)CCO5)CC[C@@]45C[C@@]35CC[C@]21C)C(C)(C)O (stereo partly drawn)	≥ 6.00
CC(=O)O[C@@H]([C@H]1C[C@@H](C)C2C(O1)[C@H](O)[C@@]1(C)[C@@H]3CC[C@H]4C(C)(C)[C@@H](OCC(=O)O)CC[C@@]45C[C@@]35CC[C@]21C)C(C)(C)O (stereo partly drawn)	5.00 to 6.00
CC(=O)O[C@@H]([C@H]1C[C@@H](C)C2C(O1)[C@H](O)[C@@]1(C)[C@@H]3CC[C@H]4C(C)(C)[C@@H](O[C@H]5CN(C)CCO5)CC[C@@]45C[C@@]35CC[C@]21C)C(C)(C)O (stereo partly drawn)	≥ 6.00
CN[C@H]1CC[C@]23C[C@]24CC[C@]2(C)C5C(O[C@@H]([C@H](OC(C)=O)C(C)(C)O)C[C@H]5C)[C@H](O)[C@@]2(C)[C@@H]4CC[C@H]3C1(C)C (stereo partly drawn)	5.00 to 6.00
CC(=O)O[C@@H]([C@H]1C[C@@H](C)C2C(O1)[C@H](O)[C@@]1(C)[C@@H]3CC[C@H]4C(C)(C)[C@@H](O[C@H]5CNCCO5)CC[C@@]45C[C@@]35CC[C@]21C)C(C)(C)O (stereo partly drawn)	≥ 6.00
CC(=O)O[C@@H]([C@H]1C[C@@H](C)C2C(O1)[C@H](O)[C@@]1(C)[C@@H]3CC[C@H]4C(C)(C)[C@H](NO)CC[C@@]45C[C@@]35CC[C@]21C)C(C)(C)O (stereo partly drawn)	5.00 to 6.00
COCCN[C@H]1CC[C@]23C[C@]24CC[C@]2(C)C5C(O[C@@H]([C@H](OC(C)=O)C(C)(C)O)C[C@H]5C)[C@H](O)[C@@]2(C)[C@@H]4CC[C@H]3C1(C)C (stereo partly drawn)	5.00 to 6.00
COCCN1CCOC(O[C@H]2CC[C@]34C[C@]35CC[C@]3(C)C6C(O[C@@H]([C@H](OC(C)=O)C(C)(C)O)C[C@H]6C)[C@H](O)[C@@]3(C)[C@@H]5CC[C@H]4C2(C)C)C1 (stereo partly drawn)	≥ 6.00

same assay, conditions: Aβ-42, 10 umol/L; read-out: % Inhibition (range)

SMILES	inhibition at 10 µM [%]
CC(=O)O[C@@H]([C@H]1C[C@@H](C)C2=C(O1)[C@H](O)[C@@]1(C)[C@@H]3CC[C@H]4C(C)(C)[C@@H](O)CC[C@@]45C[C@@]35CC[C@]21C)C(C)(C)O	> 75

same assay, conditions: Aβ-42, 100 umol/L; read-out: % Inhibition (range)

SMILES	inhibition at 100 µM [%]
CCC(=O)O[C@@H]([C@H]1C[C@@H](C)C2C(O1)C(O)[C@@]1(C)[C@@H]3CC[C@H]4C(C)(C)[C@@H](O[C@@H]5OC[C@@H](O)[C@H](O)[C@H]5O)CC[C@@]45C[C@@]35CC[C@]21C)C(C)(C)O (stereo partly drawn)	25 to 75
